Experimental findings from ChEMBL document CHEMBL4373717, “Coumarin-containing hybrids and their anticancer activities” (Eur J Med Chem, 2019) are described below.

≈ marks a conversion by molar mass, not a printed value.

One test concerns NCI-H1650. The experiment in a line: Growth inhibition of human NCI-H1650 cells. The format is functional.
The subject of test [1] is NCI-H460. Nature of the test: Growth inhibition of human H460 cells. The format is functional.
Test [2] concerns A549. Nature of the test: Growth inhibition of human A549 cells. The format is functional.
Test [3] relates to MCF7. The experiment in a line: Antiproliferative activity against human MCF7 cells after 48 hrs by MTT assay. The test is classed as functional, cell-based. As to conditions: MCF7, 48 h. (In general: Tetrazolium dyes change colour on reduction, which living cells bring about.)
Test [4] relates to K562. Nature of the test: Antiproliferative activity against human K562 cells after 48 hrs by MTT assay. The format is functional, cell-based. As to conditions: K562, 48 h.
In test [5] the test system is K562. Nature of the test: Potency index, ratio of cisplatin IC50 to compound IC50 for antiproliferative activity against human K562 cells. The test is classed as functional.
Test [6] has as its system A549. Nature of the test: Potency index, ratio of cisplatin IC50 to compound IC50 for antiproliferative activity against human A549 cells. The format is functional.
The subject of test [7] is MCF7. Nature of the test: Potency index, ratio of cisplatin IC50 to compound IC50 for antiproliferative activity against human MCF7 cells. The test is classed as functional.
Test [8] relates to A549. Nature of the test: Antiproliferative activity against human A549 cells after 48 hrs by MTT assay. The test is classed as functional, cell-based. As to conditions: A549, 48 h.
The subject of test [9] is K562. The experiment in a line: Anticancer activity against human K562 cells by MTT assay. The format is functional, cell-based.
Test [10] deals with A549. Nature of the test: Anticancer activity against human A549 cells by MTT assay. The format is functional, cell-based.
The test system of the next test is HEK-293T. Nature of the test: Cytotoxicity against HEK293T cells assessed as reduction in cell viability after 24 hrs by MTT assay. The note with it: Homo sapiens. The format is cell-based.
Test [11] has as its system A549. Nature of the test: Cytotoxicity against human A549 cells assessed as reduction in cell viability by MTT assay. The format is functional, cell-based.
For test [12], the system named is HeLa. The experiment in a line: Cytotoxicity against human HeLa cells assessed as reduction in cell viability by MTT assay. The format is functional, cell-based.
Test [13] concerns HeLa. Nature of the test: Cytotoxicity against human HeLa cells assessed as reduction in cell viability after 24 hrs by MTT assay. The format is functional, cell-based.
In test [14] the test system is MDA-MB-231. The experiment in a line: Cytotoxicity against human MDA-MB-231 cells assessed as reduction in cell viability after 24 hrs by MTT assay. The format is functional, cell-based.
Test [15] concerns NCI-H460. The experiment in a line: Growth inhibition of human NCI-H460 cells. The format is functional.
The test system of test [16] is HepG2. The experiment in a line: Antiproliferative activity against human HepG2 cells after 72 hrs by ELISA. The format is functional, cell-based. The note with it: HepG2, 72 h.
The subject of a further test is HT-29. The experiment in a line: Cytotoxicity against human HT-29 cells assessed as reduction in cell viability by MTT assay. The test is classed as functional, cell-based.
The subject of test [17] is MDA-MB-231. Nature of the test: Anticancer activity against human MDA-MB-231 cells by MTT assay. The test is classed as functional, cell-based.
Test [18] deals with HepG2. Nature of the test: Anticancer activity against human HepG2 cells by MTT assay. The format is functional, cell-based.
The test system of test [19] is MDA-MB-231. The experiment in a line: Cytotoxicity against human MDA-MB-231 cells assessed as reduction in cell viability after 24 hrs in hypoxic condition by MTT assay. As to conditions: MDA-MB-231, 24 h.
Test [20] deals with MCF7. The experiment in a line: Growth inhibition of human MCF7 cells. The format is functional.
For a further test, the system named is L02. The experiment in a line: Cytotoxicity against human L02 cells assessed as reduction in cell viability after 24 hrs by MTT assay. The format is cell-based. The note with it: L02, 24 h.
The next test concerns SF-268. The experiment in a line: Growth inhibition of human SF268 cells. The test is classed as functional.
The next test relates to COS-7. The experiment in a line: Cytotoxicity against African green monkey COS7 cells assessed as reduction in cell viability by MTT assay. The format is functional, cell-based. As to conditions: Chlorocebus aethiops.
A further test relates to PC-3. The experiment in a line: Cytotoxicity against human PC3 cells assessed as reduction in cell viability by MTT assay. The test is classed as functional, cell-based.
The subject of test [21] is HeLa. Nature of the test: Anticancer activity against human HeLa cells by MTT assay. The format is functional, cell-based.
A further test concerns Caco-2. Nature of the test: Antiproliferative activity against human Caco2 cells after 72 hrs by ELISA. The format is functional, cell-based. The note with it: Caco-2, 72 h.
The next test concerns 769-P. Nature of the test: Anticancer activity against human 769-P cells by MTT assay. The test is classed as functional, cell-based.
A further test concerns DLD-1. The experiment in a line: Cytotoxicity against human DLD1 cells assessed as reduction in cell viability. The format is functional, cell-based.
The subject of a further test is Ishikawa. The experiment in a line: Growth inhibition of human Ishikawa cells relative to control. The test is classed as functional.
Test [22] has as its system HeLa. Nature of the test: Antiproliferative activity against human HeLa cells by MTT assay. The test is classed as functional, cell-based.
Test [23] has as its system A549. Nature of the test: Cytotoxicity against human A549 cells assessed as reduction in cell viability after 24 hrs by MTT assay. The test is classed as functional, cell-based. The note with it: A549, 24 h.
The test system of test [24] is HepG2. Nature of the test: Cytotoxicity against human HepG2 cells assessed as reduction in cell viability after 48 hrs by MTT assay. The format is functional, cell-based. The note with it: HepG2, 48 h.
Test [25] concerns MDA-MB-231. The experiment in a line: Potency index, ratio of cisplatin IC50 to compound IC50 for cytotoxicity against human MDA-MB-231 cells in normoxic condition. The format is functional.
In test [26] the test system is MDA-MB-231. Nature of the test: Potency index, ratio of doxorubicin IC50 to compound IC50 for cytotoxicity against human MDA-MB-231 cells in normoxic condition. The test is classed as functional.
Test [27] concerns MDA-MB-231. Nature of the test: Potency index, ratio of doxorubicin IC50 to compound IC50 for cytotoxicity against human MDA-MB-231 cells in hypoxic condition. The test is classed as functional.
In test [28] the test system is MDA-MB-231. Nature of the test: Potency index, ratio of cisplatin IC50 to compound IC50 for cytotoxicity against human MDA-MB-231 cells in hypoxic condition. The test is classed as functional.
For test [29], the system named is HepG2. The experiment in a line: Potency index, ratio of doxorubicin IC50 to compound IC50 for anticancer activity against human HepG2 cells by MTT assay. The test is classed as functional.
Test [30] deals with MCF7. Nature of the test: Cytotoxicity against human MCF7 cells assessed as reduction in cell viability by MTT assay. The format is functional, cell-based. As to conditions: Homo sapiens, MCF7.
A short description of test [31]: Cytotoxicity against BHK cells assessed as reduction in cell viability by MTT assay. As to conditions: Cricetinae.

By GI50 is commonly meant the concentration giving 50% growth inhibition. Turning to `COc1ccc(C(=O)CC(c2c(O)c3ccccc3oc2=O)c2c(O)c3ccccc3oc2=O)c(O)c1`, the GI50 is 50.1 µM in the test with NCI-H1650, 35.7 µM with NCI-H460 [1] and 33.3 µM in the test with A549 [2].
In general, IC50 refers to the midpoint of a concentration-inhibition curve. Consider `CCN(CC)CCOc1ccc(-c2c(-c3ccc(NC(=O)CCCCCCCCC(=O)Nc4ccc(-c5c(-c6ccc(OCCN(CC)CC)cc6)c6ccc(OCCN(CC)CC)cc6oc5=O)cc4)cc3)c(=O)oc3cc(OCCN(CC)CC)ccc23)cc1`, for which the IC50 in the test with MCF7 [3], in the test with K562 [4] and with A549 [8] was 1 to 3.72 µM throughout. In addition, the “Ratio IC50” value with K562 [5], with A549 [6] and in the test with MCF7 [7] was 2.4 - 8.3 each time.
With `COc1cccc2c1C(=O)c1c(O)c3c(c(O)c1C2=O)C[C@@](O)(C(=O)CO)C[C@@H]3O[C@H]1C[C@H](N)[C@H](O)[C@H](C)O1` [DOXORUBICIN], the IC50 with K562 [9] was 0.54 to 0.6 µg/mL (≈ 0.994 to 1.1 µM); in the test on A549 [10], 0.54 to 0.6 µg/mL (≈ 0.994 to 1.1 µM); with HEK-293T, 3.77 µM; with A549 [11] it was 0.82 to 2.13 µM; in the test with HeLa [12], 0.82 to 3.04 µM; in the test on HeLa [13] it was 3.97 to 5.13 µM. The concentration for half-maximal inhibition (IC50) was 3.97 to 5.13 µM in the test with MDA-MB-231 [14] (Homo sapiens, MDA-MB-231, 24 h); 4.1 µM in the test with HepG2 [16]; 0.82 to 2.13 µM with HT-29; 0.45 to 0.89 µg/mL (≈ 0.828 to 1.64 µM) with MDA-MB-231 [17]; 0.45 to 0.89 µM in the test with HepG2 [18]; 0.6 µM with MDA-MB-231 [19]. The IC50 in the test with L02 is 1.09 µM; in the test on COS-7, 2.05 to 3.04 µM; with PC-3, 0.82 to 2.13 µM; in the test on HeLa [21], 0.54 to 0.6 µg/mL (≈ 0.994 to 1.1 µM); with Caco-2, 5.13 µM; with 769-P, 0.45 to 0.89 µM. Moreover, the IC50 in the test on DLD-1 was 163 µM; with HeLa [22] it was 1.11 µM; in the test on A549 [23], 3.97 to 5.13 µM; in the test on HepG2 [24], 3.01 µM. The GI50 in the test on NCI-H460 [15], in the test with MCF7 [20] and in the test on SF-268 was 0.04 to 0.09 µM each time. Further, in the test on Ishikawa, the “growth inhibition (GI)” value is recorded as 11.55 - 95.52%.
Turning to `COc1ccc(NC(=O)c2ccc(-n3cc(COc4cc(=O)oc5ccccc45)nn3)cc2)cc1OC`, the IC50 in the test with MDA-MB-231 [14] (mda-mb-231) lay within 0.03 to 91.6 µM. The “Ratio IC50” value in the test on MDA-MB-231 [25], in the test on MDA-MB-231 [26], in the test with MDA-MB-231 [27] and in the test with MDA-MB-231 [28] was 20 - 156 in each case.
`O=c1ccc2ccc(OCCn3cc(COc4ccc5ccc(=O)oc5c4)nn3)cc2o1` had a half-maximal inhibitory concentration (IC50) with HepG2 [18] of 0.383 µM. Further, the “Ratio IC50” value in the test with HepG2 [29] was 2.1.
As to `CN(Cc1cnc2nc(N)nc(N)c2n1)c1ccc(C(=O)N[C@@H](CCC(=O)O)C(=O)O)cc1` [METHOTREXATE], the IC50 turned out to be 27.1 µM in the test on MCF7 [30] and 150 µM in test [31].
